{"source": "patent US20050032243A1", "about": "“Method and apparatus for rapid determination of ligand-protein binding using charcoal adsorption” (priority 2001, published 2005)", "key": {"HSA": {"system": "HSA", "conditions": "literature reference value; cited from earlier work"}, "[1]": {"biological_target": "T1, human serum albumin (HSA) (Homo sapiens, UniProt P02768)", "T1 sequence (P02768 25-609)": "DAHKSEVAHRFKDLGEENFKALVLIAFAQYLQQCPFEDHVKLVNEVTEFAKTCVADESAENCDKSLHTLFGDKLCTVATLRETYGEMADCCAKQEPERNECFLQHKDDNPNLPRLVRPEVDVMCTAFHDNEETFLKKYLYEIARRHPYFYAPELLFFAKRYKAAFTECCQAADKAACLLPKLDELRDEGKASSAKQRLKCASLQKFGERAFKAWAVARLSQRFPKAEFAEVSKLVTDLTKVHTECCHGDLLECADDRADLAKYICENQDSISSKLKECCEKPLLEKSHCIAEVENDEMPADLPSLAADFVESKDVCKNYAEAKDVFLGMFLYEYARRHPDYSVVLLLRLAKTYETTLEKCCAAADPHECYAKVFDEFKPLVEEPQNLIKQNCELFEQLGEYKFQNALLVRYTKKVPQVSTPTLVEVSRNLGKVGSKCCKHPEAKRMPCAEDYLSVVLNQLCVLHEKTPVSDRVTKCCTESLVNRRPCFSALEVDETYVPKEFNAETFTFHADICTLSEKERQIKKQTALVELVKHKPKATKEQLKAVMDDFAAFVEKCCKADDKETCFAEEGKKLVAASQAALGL", "assay": "Extent of DCC adsorption as a function of unbound fraction (HSA dilutions, ultrafiltration)", "procedure": "Solutions were allowed to incubate at room temperature for 30 minutes and 200 μl samples were loaded onto the DCC cartridge. Elution was initiated and samples collected under vacuum at 5, 10 and 60 seconds.\n(§1) Ultrafiltration Experiments. […] Samples (0.5 ml) were centrifuged (1500×g; 3 minutes) at 25° C.\n0.1 μCi/ml) in isotonic PBS and dilutions of a 40 mg/ml HSA solution were prepared. Solutions were allowed to incubate at room temperature for 30 minutes and 200 μl samples were loaded onto the DCC cartridge. Elution was initiated and samples were collected under vacuum at 1 second and at 60 seconds. Adsorption of each ligand also was evaluated after 2 hours of DCC exposure.\nas §1\nEvaluation of Alternative HSA Site I-Specific Ligands.\nThe relationship between the extent of adsorption and the unbound fraction for each ligand can be described by Equation 1. y=yo+a(1−e^−bx) Equation 1"}, "[2]": {"biological_target": "T1, human serum albumin (HSA)", "assay": "Time course of ligand adsorption in packed-bed DCC cartridge in the presence of HSA", "conditions": "HSA 40 mg/ml, at termination of experiment (5 minutes)"}, "[3]": {"conditions": "1 minute DCC exposure, mean ± SE"}}, "data": [{"smiles": "CC(C)NCC(O)COc1cccc2ccccc12", "note": "(stereo not drawn) [[^3H]-PRO, propanonol]", "values": [{"measurement": "UNBOUND FRACTION", "setting": "HSA", "value": 0.13}]}, {"smiles": "C[C@H]1O[C@@H](O[C@H]2[C@@H](O)C[C@H](O[C@H]3[C@@H](O)C[C@H](O[C@H]4CC[C@@]5(C)[C@H](CC[C@@H]6[C@@H]5CC[C@]5(C)[C@@H](C7=CC(=O)OC7)CC[C@]65O)C4)O[C@@H]3C)O[C@@H]2C)C[C@H](O)[C@@H]1O", "note": "[[^3H]-DIGT, digitoxin]", "values": [{"measurement": "Yo (intercept of Equation 1, extent of adsorption at unbound fraction 0)", "setting": "[1]; [3]", "value": 0}, {"measurement": "a (empirical parameter of Equation 1)", "setting": "[1]; [3]", "value": "95.6 ± 0.3"}, {"measurement": "b (empirical parameter of Equation 1)", "setting": "[1]; [3]", "value": "29.5 ± 0.7"}, {"measurement": "DCC adsorption as unbound fraction approached 0.2", "setting": "[1]; 1 minute of charcoal exposure", "value": "nearly complete"}, {"measurement": "UNBOUND FRACTION", "setting": "HSA", "value": 0.05}, {"measurement": "adsorption to DCC in the presence of HSA", "setting": "[2]", "value": "~100", "unit": "%"}]}, {"smiles": "N[C@@H](Cc1c[nH]c2ccccc12)C(=O)O", "note": "[[^3H]-TRP, L-tryptophan]", "values": [{"measurement": "UNBOUND FRACTION", "setting": "HSA", "value": 0.5}]}, {"smiles": "O=C1NC(=O)C(c2ccccc2)(c2ccccc2)N1", "note": "[[^3H]-DPH, diphenylhydantion]", "values": [{"measurement": "adsorption after 1 minute of exposure to DCC, restricted or not", "setting": "[1]", "value": "not restricted"}, {"measurement": "UNBOUND FRACTION", "setting": "HSA", "value": 0.12}]}, {"smiles": "CCCC(CCC)C(=O)O", "note": "[[^3H]-VPA, valproic acid, valproate]", "values": [{"measurement": "a (empirical parameter of Equation 1)", "setting": "[1]", "value": "82.9 ± 8.6"}, {"measurement": "b (empirical parameter of Equation 1)", "setting": "[1]", "value": "1.5 ± 0.4"}, {"measurement": "Yo (intercept of Equation 1, extent of adsorption at unbound fraction 0)", "setting": "[1]; human", "value": "27.0 ± 4.1"}, {"measurement": "fraction unbound at 10 mg/ml", "setting": "[1]; human", "value": "~0.8"}, {"measurement": "UNBOUND FRACTION", "setting": "HSA", "value": 0.1}]}]}
